{"source": "patent US20260198548A1", "about": "“AEROSOL-GENERATING ARTICLE WITH AN AVERSIVE FLAVOURANT IN A REMOVABLE WRAPPER” (PHILIP MORRIS PRODUCTS S.A., priority 2022, published 2026)", "origin": "cited, not measured here", "note": "Where a name gives a salt, the structure may show the parent alone.", "data": [{"test_system": "test panel members (bitter taste)", "conditions": "reciprocal of the dilution that still has a bitter taste; quinine hydrochloride reference set at 200,000", "values": [{"compound": "C=C[C@H]1C[N@@]2CC[C@H]1C[C@H]2[C@H](O)c1ccnc2ccc(OC)cc12", "note": "[Quinine hydrochloride, quinine hydrochloride]", "Bitterness value": "200,000"}, {"compound": "CC1=C[C@H]2[C@H]3[C@H](C(C)=C4[C@H]5OC(=O)[C@@H](C)[C@@H]5CC[C@](C)(O)[C@@H]43)[C@@]13[C@@H]2[C@@](C)(O)CC[C@H]1[C@H](C)C(=O)O[C@@H]13", "note": "[Absinthin, absinthin]", "Bitterness value": "3,000,000"}, {"compound": "amarogentin", "Bitterness value": "58,000,000"}, {"compound": "COC1=C[C@@H](C)[C@@H]2C[C@H]3OC(=O)C[C@H]4C(C)=C(OC)C(=O)[C@H]([C@@]2(C)C1=O)[C@@]34C", "note": "[Quassin, quassin]", "Bitterness value": "13,000,000"}, {"compound": "C[C@@]12C[C@@H](c3ccoc3)OC(=O)[C@@H]1CC[C@]1(C)[C@H]2[C@@H]2C=C[C@@]1(O)C(=O)O2", "note": "[Columbin, columbin]", "Bitterness value": "60,000,000"}]}]}
